From patent US20040002537A1, “Use of statins in the treatment of autoimmune disease” (priority 2002, published 2004)

How the values were obtained:
[1] = tested on: PLP p139-151-stimulated spleen cells
Experimental: Ag Specific Ex-vivo T Cell Proliferation Assay. […] Lymph node cells (LNCs) or splenocytes were cultured in vitro for specific proliferative response to the specific encephalogenic peptide (PLP 139-151, MOG 35-55 or MBP Ac1-11, respectively). LNCs were prepared in 96-well microtiter plates in a volume of 0.2 ml/well at a concentration of 5×10^6 cells/ml. The culture medium consisted of enriched RPMI (RPMI 1640 supplemented with L-glutamine [2 mM], sodium pyruvate [1 mM], nonessential amino acids [0.1 mM], penicillin [100 U/ml], streptomycin [0.1 mg/ml], 2-ME [5×10^−5 M]) supplemented with 1% autologous fresh normal mouse serum with the addition of different peptides concentrations. Cultures were incubated in 37° C. in humidified air containing 5% CO2. Cultures taken from SJL/J or C57BL/6 mice were incubated for 72h whereas cultures from MBPAc-1-11 Tg mice were incubated for 48 hours and then were pulsed for 18 hr with 1 μCi/well of [^3H] thymidine. The cells were then harvested and counted in a β counter.

[2] = tested on: MHC II; settings: through the effect on the CIITA p IV gene; cited from earlier work
[3] = tested on: Th1/Th2 cytokines (IL-2, IFN-γ, IL-4, IL-10); test: Cytokine profile determination by ELISA, ex vivo lymph node and spleen cells; assay type: in vivo, mouse
Experimental: Cytokine Profile Determination. Lymph node cells and spleen cells from EAE donors were stimulated in vitro (2.5×10^6 cells/ml) in 24-well plates with or without the encephalogenic peptide or with […] as positive control. Cell culture supernatants were collected at different time points for measurements of cytokine levels: 48 hours for IL-2 , 72 hours for IFN-γ and TNF α, and 120 hours for […]. Cytokine levels were determined using specific ELISA kits for the corresponding cytokines according to the manufacturer's protocols (PharMingen, San Diego, Calif., USA).

[4] = tested on: PLP p139-151-induced EAE in SJL/J mice; test: PLP p139-151-induced relapsing EAE, oral atorvastatin; assay type: in vivo, mouse
[5] = tested on: MOG p35-55-induced EAE in C57BL/6 mice; test: MOG p35-55-induced chronic EAE, oral atorvastatin; assay type: in vivo, mouse; settings: daily oral
[6] = tested on: STAT6; test: Western blot for STAT6 phosphorylation in draining lymph node cells of treated mice; assay type: in vivo, mouse; settings: SJL/J mice, 1 mg/kg and 10 mg/kg oral, 10 days after EAE induction, FIG. 5 lanes 2 and 3
Experimental: (§1) Western Blot Analysis for STAT-6 and STAT-4 Phosphorylation. Western Blot analysis was performed as described in Garren et al. (2001) Immunity 15:15, with minor modifications. Lymph nodes from control and atorvastatin-treated mice were homogenized in T-PER protein extraction buffer (Pierce,), with 20 μg/ml aprotinin, 20 μg/ml leupeptin, 1.6 mM Pefablock SC (Roche), 10 mM NaF, 1 mM Na3VO4 and 1 mM Na4P2O7 (Sigma, St. Louis, Mo.). All procedures were handled on ice. As a positive control, lymph node cells from naive mice were isolated and cultured for one hour with mouse recombinant IL-4 (10 ng/ml) or INF-γ (100 units/ml), for STAT6 and STAT4 expression respectively. Protein concentrations were determined by BCA protein assay (Pierce). Lysate was added to 3×SDS loading buffer (Cell Signaling Technology) with 40 mM DTT. Products were separated by electrophoresis on a 4-15% SDS-PAGE gradient gel (BioRad). Pre-stained markers (Invitrogen) were used to determine MW. Gels were blotted to PVDF membranes at 100 V in 25 mM Tris, 192 mM glycine and 20% (v/v) methanol, then blocked 1 hr at RT with Tris-buffered saline (TBS) containing 0.1% Tween-20 and 5% nonfat dry milk. […]

[7] = tested on: MBP Ac1-11-induced EAE in MBP Ac1-11 Tg mice; test: MBP Ac1-11-induced acute EAE, oral atorvastatin; assay type: in vivo, mouse; settings: FIG. 1E
[8] = tested on: microglia and astrocytes; settings: cited from earlier work
[9] = tested on: STAT6; test: Western blot for STAT6 phosphorylation, naive lymph node cells cultured with IL-4 (positive control); assay type: cell-based, mouse; settings: 10 ng/ml for one hour, FIG. 5 lane 4
Experimental: as §1

## CC(C)c1c(C(=O)Nc2ccccc2)c(-c2ccccc2)c(-c2ccc(F)cc2)n1CC[C@@H](O)C[C@@H](O)CC(=O)O [atorvastatin]
[1]; cells from SJL/J mice treated with 1 or 10 mg/kg, FIG. 4A
  PLP p139-151-specific proliferative responses (3H-thymidine incorporation): suppressed in a dose-related fashion
[1]; lymphocytes from treated mice
  Cell death in the in vitro cultures: not observed increased cell death
[2]
  Expression of MHC II: could inhibit the expression of MHC II
[3]; C57BL/6 and MBP Ac1-11-specific transgenic mice
  Th2 bias (proliferation and cytokines) in other strains: almost identical Th2 bias
[3]; SJL/J mice, 10 mg/kg, ELISA, FIG. 4E
  Secretion of IL-10: observed at the higher treatment dose
[3]; SJL/J mice, 1 and 10 mg/kg, ELISA, FIG. 4B
  Production of IL-2: reduced, although to a much greater extent in mice treated with 10 mg/kg
[3]; SJL/J mice, both treatment doses (1 and 10 mg/kg), ELISA, FIG. 4C
  Secretion of IFN-γ: dramatic reduction
[3]; SJL/J mice, both treatment doses (1 and 10 mg/kg), ELISA, FIG. 4D
  IL-4 secretion: induced at both treatment doses
[4]; FIG. 1D
  Ongoing relapsing EAE, treatment begun after recovery from acute EAE: reversal of ongoing relapsing EAE
[4]; treatment at onset, FIG. 1C
  Prevention of relapsing EAE: effective in prevention of relapsing EAE
[5]; C57Bl/6 female mice, 1 mg/kg or 10 mg/kg, FIG. 1A
  EAE clinical score, treatment starting at EAE onset: suppressed EAE induction
[5]; C57Bl/6 mice, FIG. 1B
  EAE clinical score, treatment after onset: ameliorated EAE
[6]
  Phosphorylated STAT6 in lymph nodes (Western blot): phosphorylated STAT6 is seen
[7]
  Acute EAE progression: successfully prevented acute EAE progression

## CC[C@H](C)C(=O)O[C@H]1C[C@@H](C)C=C2C=C[C@H](C)[C@H](CC[C@@H]3C[C@@H](O)CC(=O)O3)[C@H]21 [lovastatin]
[8]
  Production of iNOS and proinflammatory cytokines (TNFα, IL-1β and IL-6): inhibited production

B1: mouse recombinant IL-4: mouse recombinant IL-4 (10 ng/ml), positive control for STAT6 phosphorylation (protein, UniProt P07750 21-140, looked up)
Interleukin-4: HIHGCDKNHLREIIGILNEVTGEGTPCTEMDVPNVLTATKNTTESELVCRASKVLRIFYLKHGKTPCLKKNSSVLMELQRLFRAFRCLDSSISCTMNESKSTSLKDFLESLKSIMQMDYS
[9]
  Phosphorylated STAT6 in naive lymph node cells (Western blot): phosphorylated STAT6 is seen
